Test system: cows
Test: Abomasal infusion of glycerol in cows, different cows (Example 5)
Assay type: in vivo, cow
Conditions: for Fat / Lactose / Total Solids / True Protein: 150 g/cow/day abomasal, average of 3 cows
Protocol: To determine the weight percent total solids, wet basis, in a sample, the actual weight of total solids is determined by analyzing the sample in accordance with Method #925.23 (33.2.09) of Official Methods of Analysis, Association of Official Analytical Chemists (AOAC) (16th Ed., 1995). The weight percent total solids, wet basis, is then calculated by dividing the actual weight of total solids by the actual weight of the sample. The weight percent of true protein, wet basis, for a particular sample is calculated after first determining the wet basis weight percent of total Kjeldahl nitrogen and the wet basis weight percent of non-protein nitrogen in the sample. The wet basis weight percent of total Kjeldahl nitrogen in the sample is determined using the method referenced above. The wet basis weight percent of non-protein nitrogen (NPN) in the sample is determined in accordance with Method #991.21 (33.2.12) of Official Methods of Analysis, Association of Official Analytical Chemists (AOAC) (16th Ed., 1995). The weight percent of true protein, wet basis, in the sample is then determined by subtracting the wet basis weight percent of non-protein nitrogen in the sample from the wet basis weight percent of total Kjeldahl nitrogen in the sample. To determine the weight percent lactose, wet basis, in a liquid sample, the weight of the liquid sample is first determined. The actual weight of lactose in the liquid sample may then be determined using analysis kit number 176-303, that is available from Boehringer-Mannheim of Indianapolis, Ind. in accordance with the procedural instructions included with analysis kit number 176-303. The weight percent lactose, wet basis, in the liquid sample is then calculated by dividing the actual weight of lactose in the liquid sample by the actual weight of the liquid sample. To determine the weight percent fat, wet basis, in a sample, the actual weight of fat in the sample is determined in accordance with Method #974.09 (33.7.18) of Official Methods of Analysis, Association of Official Analytical Chemists (AOAC) (16th Ed., 1995). The weight percent fat, wet basis, is then calculated by dividing the actual weight of fat in the sample by the actual weight of the sample. In this example, glycerol was abomasally infused into three different cows at a rate of 150 grams per cow per day during a 14 day test period. The cows used in this Example were different from the cows used in Example 4. The rations provided to the cows during the period extending from day 0, prior to abomasal infusion of glycerol, through day 14 of the test period were the same. The only difference in feeding of the cows between day 0 and days 1-14 of the test period were that during days 1-14 the cows were abomasally infused with the dosage of 150 grams of glycerol per cow per day. The glycerol was not combined with any other materials prior to being abomasally infused into the cattle. Milk from the three cows was collected and analyzed prior to infusion (on day 0) and also was collected and analyzed on the third, seventh and fourteenth day of the test period. The results presented in Table 5 below for each milk component for each particular day are averages for the milk collected from the three different cows. The net change for the different milk components presented in Table 5 was calculated by averaging the results of days 3, 7 and 14 for a particular milk component and subtracting the results presented for day 0 for the particular milk component.

[1] = milk, average of days 3, 7, 14 minus day 0

Question: Which “weight percent of fat, true protein, lactose, and total solids in the milk (conclusion in words)” value (abomasal infusion, 14 day test period) does the source give for `OCC(O)CO` [glycerol] here?
Answer: net increase

Question: What about the Fat (milk, Day 3) of the same molecule?
Answer: 3.39 Wt %

Question: And the Lactose (milk, Day 3)?
Answer: 4.86 Wt. %

Question: What about the “Total Solids” value (milk, Day 3) of the same molecule?
Answer: 12.04 Wt. %

Question: What about the “True Protein” value (milk, Day 3) of the same molecule?
Answer: 3.04 Wt. %

Question: What about the Fat (milk, Day 7) of the same molecule?
Answer: 3.25 Wt %

Question: What about the Lactose (milk, Day 7) of the same molecule?
Answer: 5.19 Wt. %

Question: And the “Total Solids” value (milk, Day 7)?
Answer: 12.17 Wt. %

Question: What about the “True Protein” value (milk, Day 7) of the same molecule?
Answer: 2.98 Wt. %

Question: And the Fat (milk, Day 14)?
Answer: 3.32 Wt %

Question: What about the Lactose (milk, Day 14) of the same molecule?
Answer: 4.87 Wt. %

Question: And the “Total Solids” value (milk, Day 14)?
Answer: 11.99 Wt. %

Question: What about the “True Protein” value (milk, Day 14) of the same molecule?
Answer: 3.05 Wt. %

Question: And the “Fat, Net Change” value [1]?
Answer: +0.25 Wt %

Question: And the “Lactose, Net Change” value [1]?
Answer: +0.08 Wt. %

Question: What about the “Total Solids, Net Change” value [1] of the same molecule?
Answer: +0.44 Wt. %

Question: And the “True Protein, Net Change” value [1]?
Answer: +0.10 Wt. %

From patent US6866861B1, “Method and composition for enhancing milk component concentrations” (Land O'Lakes, Inc., priority 1999, dated 2005)
